The record followed here is ChEMBL document CHEMBL5550133, “Update on the development of TGR5 agonists for human diseases” (Eur J Med Chem, 2024).

≈ marks a conversion by molar mass, not a printed value.

Series [1] is described as follows: Oral bioavailability in mouse at 2 mg/kg. The class given is ADME, organism-based. Conditions: in vivo.
The target of series [2] is T1, G-protein coupled bile acid receptor 1 (Homo sapiens, UniProt Q8TDU6).
T1 sequence (Q8TDU6 whole entry): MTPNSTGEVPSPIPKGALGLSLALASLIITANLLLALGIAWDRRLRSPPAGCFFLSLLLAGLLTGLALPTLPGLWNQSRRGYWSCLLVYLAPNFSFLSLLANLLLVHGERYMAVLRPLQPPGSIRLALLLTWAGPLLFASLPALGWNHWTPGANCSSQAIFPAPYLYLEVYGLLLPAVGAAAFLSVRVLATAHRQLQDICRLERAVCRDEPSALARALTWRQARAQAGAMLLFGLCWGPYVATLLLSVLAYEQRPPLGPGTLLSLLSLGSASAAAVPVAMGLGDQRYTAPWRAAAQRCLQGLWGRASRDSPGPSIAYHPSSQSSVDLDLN
Put plainly: Agonist activity at TGR5 in HEK293 cells. The series is classed as functional, cell-based.

The target of series [3] is T2, G-protein coupled bile acid receptor 1 (Homo sapiens) (UniProt Q8TDU6).
T2 sequence (whole entry): T1 sequence (Q8TDU6 whole entry)
Put plainly: Agonist activity at TGR5 in human NCI-H716 cells assessed as increase in GLP-1 secretion at 5 uM measured for 60 mins by SEAP reporter gene based assay relative to control. The series is classed as functional, cell-based. Conditions: filed as agonist.

The next series addresses Cytochrome P450 3A4 (Homo sapiens, UniProt P08684). Description: Inhibition of CYP3A4 (unknown origin). The series is classed as ADME.
The target in series [4] is T1, G-protein coupled bile acid receptor 1. Description: Agonist activity at TGR5 (unknown origin) expressed in HEK293 cells. The series is classed as functional, cell-based.
Series [5] in a line: Clearance in human liver microsomes. The conditions noted are these: read-out: CLH. The series is classed as ADME, Microsome. A general note: Liver microsomes are a subcellular fraction often used to study metabolism.
For a further series, the target named is Cytochrome P450 2C9 (Homo sapiens, UniProt P11712). Description: Inhibition of CYP2C9 (unknown origin). The series is classed as ADME.
Series [6] deals with T1, G-protein coupled bile acid receptor 1. Put plainly: Agonist activity at TGR5 (unknown origin). The series is classed as functional.
The target in series [7] is T3, G-protein coupled bile acid receptor 1 (Mus musculus, UniProt Q80SS6).
T3 sequence (Q80SS6 whole entry): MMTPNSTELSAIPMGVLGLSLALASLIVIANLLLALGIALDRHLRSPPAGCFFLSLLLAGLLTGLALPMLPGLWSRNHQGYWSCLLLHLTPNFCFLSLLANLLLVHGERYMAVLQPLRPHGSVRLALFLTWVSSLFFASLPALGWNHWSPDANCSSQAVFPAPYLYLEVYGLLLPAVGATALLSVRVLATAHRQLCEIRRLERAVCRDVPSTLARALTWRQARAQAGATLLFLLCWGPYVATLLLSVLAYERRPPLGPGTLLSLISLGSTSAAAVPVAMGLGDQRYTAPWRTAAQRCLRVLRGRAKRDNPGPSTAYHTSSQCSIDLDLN
Description: Agonist activity at mouse TGR5 receptor. The class given is functional.

Series [8] concerns the target T1, G-protein coupled bile acid receptor 1. Description: Agonist activity at TGR5 receptor in human NCI-H716 cells assessed as activation of intracellular cAMP production incubated for 1 hr by TR-FRET assay. The class given is functional, cell-based. In general terms: cAMP levels reflect the balance of adenylyl cyclase and phosphodiesterase activity.
A short description of series [9]: Aqueous solubility of compound. The series is classed as physicochemical. Conditions: aqueous (not further specified).
Series [10] has as its target T3, G-protein coupled bile acid receptor 1. Put plainly: Agonist activity at mouse TGR5 receptor expressed in HEK293 cells assessed as activation of intracellular cAMP production incubated for 2 hrs by luciferase reporter gene assay. The class given is functional, cell-based.
Series [11] deals with CYP450 (isoform not specified) (Homo sapiens, UniProt P04798+P05177+P05181+P08684+P10632+P10635+P11509+P11712+P13584+P20813+P20815+P20853+P24462+P24903+P33260+P33261+P51589+P78329+P98187+Q02928+Q08477+Q16678+Q16696+Q5TCH4+Q6VVX0+Q7Z449+Q8TAV3+Q96SQ9+Q9HB55). Put plainly: Inhibition of CYP450 (unknown origin). The series is classed as ADME, protein assay.
Series [12] has as its target T1, G-protein coupled bile acid receptor 1. Description: Agonist activity at human TGR5. The series is classed as functional.
The target is the same in series [13]. Description: Agonist activity at TGR5 (unknown origin) in CHO-K1 cells. The class given is functional, cell-based.

Broadly, the bioavailability is dose-corrected exposure relative to a reference, in per cent. High values mean good availability, low ones poor availability. A word on the EC50: it is the midpoint of the concentration-response curve. As a reminder, the IC50 is the midpoint of a concentration-inhibition curve. Lower therefore signals higher potency. What is called solubility is the concentration that dissolves in the medium under given conditions.

Cytochrome P450 3A4, sequence (P08684 whole entry): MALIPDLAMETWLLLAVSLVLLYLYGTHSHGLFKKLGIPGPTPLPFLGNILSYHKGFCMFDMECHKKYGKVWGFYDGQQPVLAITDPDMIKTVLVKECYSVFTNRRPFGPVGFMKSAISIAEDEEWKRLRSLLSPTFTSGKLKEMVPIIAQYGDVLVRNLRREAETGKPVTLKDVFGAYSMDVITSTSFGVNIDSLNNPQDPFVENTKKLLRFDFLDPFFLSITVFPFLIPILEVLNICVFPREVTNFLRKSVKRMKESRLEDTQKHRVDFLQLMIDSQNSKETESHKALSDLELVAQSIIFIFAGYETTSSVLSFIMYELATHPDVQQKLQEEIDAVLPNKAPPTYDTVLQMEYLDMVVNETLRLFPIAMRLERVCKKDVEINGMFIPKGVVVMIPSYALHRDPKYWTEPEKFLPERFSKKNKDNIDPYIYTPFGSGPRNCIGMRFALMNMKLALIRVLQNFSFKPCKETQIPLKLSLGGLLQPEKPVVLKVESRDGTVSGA
Cytochrome P450 2C9, sequence (P11712 whole entry): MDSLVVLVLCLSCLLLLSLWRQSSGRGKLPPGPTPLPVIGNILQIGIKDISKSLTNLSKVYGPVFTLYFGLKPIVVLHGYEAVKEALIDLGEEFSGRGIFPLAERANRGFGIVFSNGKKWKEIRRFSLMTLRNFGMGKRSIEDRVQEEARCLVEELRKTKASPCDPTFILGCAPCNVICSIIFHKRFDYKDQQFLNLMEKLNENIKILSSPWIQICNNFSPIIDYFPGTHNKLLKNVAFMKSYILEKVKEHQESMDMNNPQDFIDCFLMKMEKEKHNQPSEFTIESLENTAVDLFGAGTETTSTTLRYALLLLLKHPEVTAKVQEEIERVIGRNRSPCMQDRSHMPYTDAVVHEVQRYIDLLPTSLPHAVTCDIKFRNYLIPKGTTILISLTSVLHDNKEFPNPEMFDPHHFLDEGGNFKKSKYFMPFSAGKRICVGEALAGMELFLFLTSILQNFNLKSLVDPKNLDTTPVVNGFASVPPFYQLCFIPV

Turning to `Cc1cc(/C(C[C@H](c2ccc(C3CCC(C(=O)O)CC3)cc2)c2ccccc2C)=N\O)ccn1` (stereo partly specified), the bioavailability in [1] was found to be 100%.
In turn, `CC(C)[C@@H](CO)NC(=O)CC[C@@H](C)[C@H]1CC[C@H]2[C@@H]3[C@@H](OC=O)C[C@@H]4C[C@H](OC=O)CC[C@]4(C)[C@H]3CC[C@]12C` displayed a 50% effective concentration (EC50) in [2] of 110 nM.
Turning to `CC(c1cc(C(F)(F)F)cc(C(F)(F)F)c1)N1CCOc2nccc(-c3ccccc3)c2C1` (stereo unspecified), the Activity in series [3] came out at 111%.
For `O=C(Nc1nnn[nH]1)c1cc(Cl)c(Oc2ncccc2C(=O)N2CCN(C3CC3)c3ccccc32)cc1Cl`, the half-inhibitory concentration (IC50) against Cytochrome P450 3A4 and against Cytochrome P450 2C9 was more than 10000 nM each time. In series [4], this molecule yielded an EC50 of 70 nM. Further, the CLint scaled in [5] is 56 mL/min/kg.
As for `CO[C@H]1C[C@H]2[C@@H]([C@H](OC)C[C@@H]3C[C@H](O)CC[C@@]32C)[C@@H]2CC[C@H]([C@H](C)CCC(=O)N3CCCC3)[C@@]12C`, the midpoint of the response in [6], the EC50, lay at 150 nM.
`COc1cc(-n2c(N(C)c3ccc(OC)c(OC)c3)cnc2SCc2c(F)cc(OCCCS(=O)(=O)O)cc2F)ccc1F`: the EC50 in [7] was 0.5 nM.
Take `COc1ccc(S(=O)(=O)N2CCCN(S(=O)(=O)c3ccc(OC)c(OC)c3)CC2)cc1OC` [SB-756050]: the concentration giving a half-maximal response (EC50) in series [8] stood at 1300 nM.
Regarding `O=C(c1cccnc1Oc1cccc(C(F)(F)F)c1)N1CCCc2ccccc21`, the half-maximal inhibitory concentration (IC50) against Cytochrome P450 3A4 came out at 5900 nM; against Cytochrome P450 2C9 it was 2200 nM. Also, in series [9], the solubility came to 1 µg/mL (≈ 2.51 µM).
With `Fc1cccc(F)c1-c1ccncc1CN1C(c2ccco2)=NO[C@@H]1c1cc(C(F)(F)F)cc(C(F)(F)F)c1Cl`, in [7], the EC50 stood at 249 nM.
Turning to `CN(CC[N+](C)(C)C)C(=O)CCc1cc(Cl)c(Oc2ccsc2C(=O)N2CCSc3ccccc32)cc1Cl`, the concentration giving a half-maximal response (EC50) in series [10] worked out at 74 nM.
In [11], `CCc1onc(-c2ccccc2)c1C(=O)N(C)c1ccc(Cl)cc1` had an IC50 of 251 nM.
Consider `CN(Cc1cnccc1-c1ccccc1F)C(C#N)c1cc(C(F)(F)F)cc(C(F)(F)F)c1` (stereo unspecified), for which the EC50 in series [7] came out at 150 nM; in series [12], 35 nM.
For `CC1(C)CC[C@]2(C(=O)O)CC[C@]3(C)C(=CC[C@@H]4[C@@]5(C)C[C@@H](O)[C@H](O)C(C)(C)[C@@H]5CC[C@]43C)[C@@H]2C1` [MASLINIC ACID], the half-maximal effective concentration (EC50) in series [13] stood at 3700 nM.
`COC(=O)NCc1cccc([C@H]2O[C@H](CC(=O)NCc3ccccc3F)C(=O)N(CC(C)(C)COC(C)=O)c3ccc(Cl)cc32)c1`: the Activity in series [3] was determined as 165%.
`O=C(c1cccnc1Oc1cc(Cl)ccc1Cl)N1CCN(C2COC2)c2ccccc21`: the concentration for a half-maximal effect (EC50) in series [7] was 520 nM; in series [4], 10 nM. For the same molecule, the concentration for half-maximal inhibition (IC50) on Cytochrome P450 3A4 came to 300 nM; at Cytochrome P450 2C9, 8200 nM. Besides, the CLint scaled in series [5] came to 578 mL/min/kg.
For `C[C@H]1[C@H](C)CC[C@]2(C(=O)O)CC[C@]3(C)C(=CC[C@@H]4[C@@]5(C)C[C@@H](O)[C@H](O)C(C)(C)[C@@H]5CC[C@]43C)[C@H]12` [COROSOLIC ACID], the concentration for a half-maximal effect (EC50) in series [13] stood at 500 nM.
